Test results published in paper PMC10114980, “Triple targeting of mutant EGFR^L858R/T790M, COX-2, and 15-LOX: design and synthesis of novel quinazolinone tethered phenyl urea derivatives for anti-inflammatory and anticancer evaluation” (Journal of Enzyme Inhibition and Medicinal Chemistry, 2023).

How the values were obtained:
[1] = test system: LPS-induced TNF-α production in RAW 264.7 cells; test: TNF-α production in LPS-activated RAW 264.7 cells (ELISA); assay type: cell-based; conditions: LPS-activated RAW 264.7 cells treated with 25 µM of the compound
[2] = test system: MDA-MB-231/ATCC; test: NCI single dose screen, MDA-MB-231/ATCC; assay type: cell-based; conditions: Homo sapiens, breast cancer, single dose 10^−5 M, read-out: growth inhibition percentage
Method: (§1) Screening of the anticancer activity of the newly synthesised compounds (6a, 6c, 6d, 6e, 6j, 6l, 6m, 6n, 6o, and 6p) was performed by the US National Cancer Institute (NCI) using 60 different human tumour cell lines in accordance with standard procedures formerly reported.
(§2) In vitro anticancer screening was carried out for the selected compounds at a single dose (10^−5 M) against 60 different human tumour cell lines of nine different cancer cell types: leukaemia, lung, colon, CNS, melanoma, ovarian, renal, prostate, and breast cancers.

[3] = test system: HS 578T; test: NCI single dose screen, HS 578T; assay type: cell-based; conditions: Homo sapiens, breast cancer, single dose 10^−5 M, read-out: growth inhibition percentage
Method: as §1, §2

[4] = test system: LPS-induced IL-6 production in RAW 264.7 cells; test: IL-6 production in LPS-activated RAW 264.7 cells (ELISA); assay type: cell-based; conditions: LPS-activated RAW 264.7 cells treated with 25 µM of the compound
[5] = test system: SN12C; test: NCI single dose screen, SN12C; assay type: cell-based; conditions: Homo sapiens, renal cancer, single dose 10^−5 M, read-out: growth inhibition percentage
Method: as §1, §2

[6] = test system: HCT-116; test: NCI single dose screen, HCT-116; assay type: cell-based; conditions: Homo sapiens; HCT-116, colon cancer; single dose 10^−5 M; read-out: growth inhibition percentage
Method: as §1, §2

[7] = test system: HOP-62; test: NCI single dose screen, HOP-62; assay type: cell-based; conditions: Homo sapiens; HOP-62, non-small cell lung cancer; single dose 10^−5 M; read-out: growth inhibition percentage
Method: as §1, §2

[8] = test system: MALME-3M; test: NCI single dose screen, MALME-3M; assay type: cell-based; conditions: Homo sapiens, melanoma, single dose 10^−5 M, read-out: growth inhibition percentage
Method: as §1, §2

[9] = test system: RPMI-8226; test: NCI single dose screen, RPMI-8226; assay type: cell-based; conditions: Homo sapiens; RPMI-8226, leukaemia; single dose 10^−5 M; read-out: growth inhibition percentage
Method: as §1, §2

[10] = test system: MOLT-4; test: NCI single dose screen, MOLT-4; assay type: cell-based; conditions: Homo sapiens; MOLT-4, leukaemia; single dose 10^−5 M; read-out: growth inhibition percentage
Method: as §1, §2

[11] = test system: T-47D; test: NCI single dose screen, T-47D; assay type: cell-based; conditions: Homo sapiens, T47D, breast cancer, single dose 10^−5 M, read-out: growth inhibition percentage
Method: as §1, §2

[12] = test system: SK-MEL-5; test: NCI single dose screen, SK-MEL-5; assay type: cell-based; conditions: Homo sapiens; SK-MEL-5, melanoma; single dose 10^−5 M; read-out: growth inhibition percentage
Method: as §1, §2

[13] = target: T1, double mutant EGFR^L858R/T790M (Homo sapiens, UniProt P00533, L858R/T790M); test: In vitro EGFR inhibition assay, double mutant; assay type: biochemical; conditions: for IC50: double mutant EGFR
T1 construct: purchased AssayQuant Technologies, Inc. (Marlboro, MA, USA)
T1 sequence (P00533 25-1210 T790M/L858R): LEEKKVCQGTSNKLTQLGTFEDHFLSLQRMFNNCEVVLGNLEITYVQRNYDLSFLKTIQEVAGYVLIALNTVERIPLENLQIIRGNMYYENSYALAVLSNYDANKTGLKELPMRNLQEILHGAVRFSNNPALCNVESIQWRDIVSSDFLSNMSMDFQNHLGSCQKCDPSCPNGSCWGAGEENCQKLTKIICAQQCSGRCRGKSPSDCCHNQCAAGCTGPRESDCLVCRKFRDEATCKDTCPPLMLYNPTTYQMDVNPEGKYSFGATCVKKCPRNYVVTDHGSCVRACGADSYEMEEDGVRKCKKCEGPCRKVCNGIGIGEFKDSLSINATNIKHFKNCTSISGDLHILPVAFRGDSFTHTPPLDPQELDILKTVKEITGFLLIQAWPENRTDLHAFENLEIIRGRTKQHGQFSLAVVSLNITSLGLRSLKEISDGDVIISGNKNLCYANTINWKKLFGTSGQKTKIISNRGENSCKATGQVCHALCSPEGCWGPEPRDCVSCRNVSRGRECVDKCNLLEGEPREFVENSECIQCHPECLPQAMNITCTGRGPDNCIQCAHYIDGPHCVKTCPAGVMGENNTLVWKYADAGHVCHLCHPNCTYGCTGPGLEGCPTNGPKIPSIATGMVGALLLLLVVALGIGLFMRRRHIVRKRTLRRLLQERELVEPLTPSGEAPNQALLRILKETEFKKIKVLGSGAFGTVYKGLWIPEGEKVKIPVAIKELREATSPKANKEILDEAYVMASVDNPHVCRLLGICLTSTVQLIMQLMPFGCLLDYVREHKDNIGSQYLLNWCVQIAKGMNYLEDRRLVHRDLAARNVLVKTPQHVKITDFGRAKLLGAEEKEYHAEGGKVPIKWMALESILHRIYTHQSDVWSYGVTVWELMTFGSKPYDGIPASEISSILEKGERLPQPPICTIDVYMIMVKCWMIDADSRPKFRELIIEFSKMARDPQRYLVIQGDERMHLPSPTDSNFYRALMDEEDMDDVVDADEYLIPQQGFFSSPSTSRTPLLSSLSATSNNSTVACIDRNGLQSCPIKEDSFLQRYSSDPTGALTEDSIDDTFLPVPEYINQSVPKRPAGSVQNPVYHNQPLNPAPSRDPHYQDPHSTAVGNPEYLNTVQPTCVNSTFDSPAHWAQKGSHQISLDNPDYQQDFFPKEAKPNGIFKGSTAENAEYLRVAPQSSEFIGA

[14] = test system: SK-MEL-28; test: NCI single dose screen, SK-MEL-28; assay type: cell-based; conditions: Homo sapiens; SK-MEL-28, melanoma; single dose 10^−5 M; read-out: growth inhibition percentage
Method: as §1, §2

[15] = test system: M14; test: NCI single dose screen, M14; assay type: cell-based; conditions: Homo sapiens; M14, melanoma; single dose 10^−5 M; read-out: growth inhibition percentage
Method: as §1, §2

[16] = test system: HL-60(TB); test: NCI single dose screen, HL-60(TB); assay type: cell-based; conditions: Homo sapiens, leukaemia, single dose 10^−5 M, read-out: growth inhibition percentage
Method: as §1, §2

[17] = test system: SNB-19; test: NCI single dose screen, SNB-19; assay type: cell-based; conditions: Homo sapiens; SNB-19, CNS cancer; single dose 10^−5 M; read-out: growth inhibition percentage
Method: as §1, §2

[18] = test system: MDA-MB-435; test: NCI single dose screen, MDA-MB-435; assay type: cell-based; conditions: Homo sapiens; MDA-MB-435, melanoma; single dose 10^−5 M; read-out: growth inhibition percentage
Method: as §1, §2

[19] = test system: 786-0; test: NCI single dose screen, 786-0; assay type: cell-based; conditions: Homo sapiens; 786-0, renal cancer; single dose 10^−5 M; read-out: growth inhibition percentage
Method: as §1, §2

[20] = test system: U251; test: NCI single dose screen, U251; assay type: cell-based; conditions: Homo sapiens, U-251; U251, CNS cancer; single dose 10^−5 M; read-out: growth inhibition percentage
Method: as §1, §2

[21] = test system: SF-268; test: NCI single dose screen, SF-268; assay type: cell-based; conditions: Homo sapiens; SF-268, CNS cancer; single dose 10^−5 M; read-out: growth inhibition percentage
Method: as §1, §2

[22] = test system: OVCAR-3; test: NCI single dose screen, OVCAR-3; assay type: cell-based; conditions: Homo sapiens; OVCAR-3, ovarian cancer; single dose 10^−5 M; read-out: growth inhibition percentage
Method: as §1, §2

[23] = test system: HCC-2998; test: NCI single dose screen, HCC-2998; assay type: cell-based; conditions: Homo sapiens; HCC-2998, colon cancer; single dose 10^−5 M; read-out: growth inhibition percentage
Method: as §1, §2

[24] = test system: COLO 205; test: NCI single dose screen, COLO 205; assay type: cell-based; conditions: Homo sapiens; COLO 205, colon cancer; single dose 10^−5 M; read-out: growth inhibition percentage
Method: as §1, §2

[25] = test system: UO-31; test: NCI single dose screen, UO-31; assay type: cell-based; conditions: Homo sapiens; UO-31, renal cancer; single dose 10^−5 M; read-out: growth inhibition percentage
Method: as §1, §2

[26] = test system: IGROV1; test: NCI single dose screen, IGROV1; assay type: cell-based; conditions: Homo sapiens, IGROV-1; IGROV1, ovarian cancer; single dose 10^−5 M; read-out: growth inhibition percentage
Method: as §1, §2

[27] = test system: SF-295; test: NCI single dose screen, SF-295; assay type: cell-based; conditions: Homo sapiens; SF-295, CNS cancer; single dose 10^−5 M; read-out: growth inhibition percentage
Method: as §1, §2

[28] = test system: OVCAR-5; test: NCI single dose screen, OVCAR-5; assay type: cell-based; conditions: Homo sapiens; OVCAR-5, ovarian cancer; single dose 10^−5 M; read-out: growth inhibition percentage
Method: as §1, §2

[29] = test system: OVCAR-8; test: NCI single dose screen, OVCAR-8; assay type: cell-based; conditions: Homo sapiens; OVCAR-8, ovarian cancer; single dose 10^−5 M; read-out: growth inhibition percentage
Method: as §1, §2

[30] = test system: A549/ATCC; test: NCI single dose screen, A549/ATCC; assay type: cell-based; conditions: Homo sapiens, non-small cell lung cancer, single dose 10^−5 M, read-out: growth inhibition percentage
Method: as §1, §2

[31] = test system: MCF7; test: NCI single dose screen, MCF7; assay type: cell-based; conditions: Homo sapiens; MCF7, breast cancer; single dose 10^−5 M; read-out: growth inhibition percentage
Method: as §1, §2

[32] = test system: LOX IMVI; test: NCI single dose screen, LOX IMVI; assay type: cell-based; conditions: Homo sapiens, melanoma, single dose 10^−5 M, read-out: growth inhibition percentage
Method: as §1, §2

Row | SMILES | TNF-α concentration [1] [pg/mL] | inhibition at 10 µM [2] [%] | inhibition at 10 µM [3] [%] | IL-6 concentration [4] [pg/mL] | inhibition at 10 µM [5] [%] | inhibition at 10 µM [6] [%] | inhibition at 10 µM [7] [%] | inhibition at 10 µM [8] [%] | inhibition at 10 µM [9] [%] | inhibition at 10 µM [10] [%] | inhibition at 10 µM [11] [%] | inhibition at 10 µM [12] [%] | IC50 [13] [µM] | inhibition at 10 µM [14] [%] | inhibition at 10 µM [15] [%] | inhibition at 10 µM [16] [%] | inhibition at 10 µM [17] [%] | inhibition at 10 µM [18] [%] | inhibition at 10 µM [19] [%] | inhibition at 10 µM [20] [%] | also measured
1 | CN1c2ccccc2C(=O)N(NC(=O)Nc2ccc(F)cc2)C1c1ccccc1 (centres unmarked) [Compound 6m, 1-(4-Fluorophenyl)-3-(1-methyl-4-oxo-2-phenyl-1,4-dihydroquinazolin-3(2H)-yl)urea] | 935.60 ± 3.85 | 23 | < 10 | 290.7 ± 5.5 | < 10 | < 10 | < 10 | 10.8 | 16.1 | 23.5 | 13.9 | 15.9 | 4.07 ± 3.7 | < 10 | 18.9 | < 10 | < 10 | < 10 | 12.9 | < 10 | inhibition at 10 µM [21]: < 10%; inhibition at 10 µM [22]: 20.5%; inhibition at 10 µM [23]: < 10%; inhibition at 10 µM [24]: < 10%; inhibition at 10 µM [25]: 40.1%; inhibition at 10 µM [26]: < 10%; inhibition at 10 µM [27]: < 10%; inhibition at 10 µM [28]: < 10%; inhibition at 10 µM [29]: < 10%; inhibition at 10 µM [30]: < 10%; inhibition at 10 µM [31]: 21.2%; inhibition at 10 µM [32]: 21.9%
2 | CC1N(NC(=O)Nc2ccc(F)cc2)C(=O)c2ccccc2N1C (centres unmarked) [Compound 6l, 1–(1,2-Dimethyl-4-oxo-1,4-dihydroquinazolin-3(2H)-yl)-3-(4-fluorophenyl)urea] | 1250.00 ± 5.82 | < 10 | < 10 | 536.8 ± 3.55 | < 10 | < 10 | < 10 | < 10 | < 10 | < 10 | < 10 | < 10 | 17 ± 1.4 | < 10 | < 10 | < 10 | < 10 | < 10 | < 10 | < 10 | Selectivity (SI) ([13]; ratio of the IC50 values EGFR^WT/EGFR^L858R/T790M): >5.8; inhibition at 10 µM [21]: < 10%; inhibition at 10 µM [22]: 16.9%; inhibition at 10 µM [23]: < 10%; inhibition at 10 µM [24]: < 10%; inhibition at 10 µM [25]: < 10%; inhibition at 10 µM [26]: < 10%; inhibition at 10 µM [27]: < 10%; inhibition at 10 µM [28]: < 10%; inhibition at 10 µM [29]: < 10%; inhibition at 10 µM [30]: < 10%; inhibition at 10 µM [31]: 10.7%; inhibition at 10 µM [32]: < 10%
